Tested on: not listed separately
Assay: DRUGMATRIX: Phorbol Ester radioligand binding (ligand: [3H] PDBu)
Assay type: cell membranes, Mus musculus, ICR, Brain, Membrane
Conditions: Not Active = under 50% inhibition at 10 µM

SMILES | IC50 | Ki
CC(=O)Oc1ccc(C(c2ccc(OC(C)=O)cc2)c2ccccn2)cc1 [BISACODYL] | Not Active | Not Active
Cc1cc2c(OCC(CNC(C)(C)C)OC(=O)c3ccccc3)cccc2[nH]1 (stereo unspecified) [BOPINDOLOL] | Not Active | Not Active
Brc1c(NC2=NCCN2)ccc2nccnc12 [BRIMONIDINE] | Not Active | Not Active
CN(C)[C@@H]1C(O)=C(C(N)=O)C(=O)[C@@]2(O)C(O)=C3C(=O)c4c(O)ccc(Cl)c4[C@@](C)(O)[C@H]3C[C@@H]12 [CHLORTETRACYCLINE] | Not Active | Not Active
CN/C(=N\CCSCc1nc[nH]c1C)NC#N [CIMETIDINE] | Not Active | Not Active
COc1cc(N)c(Cl)cc1C(=O)NC1CCN(CCCOc2ccc(F)cc2)CC1OC (stereo unspecified) [CISAPRIDE] | Not Active | Not Active
CCC(=O)O[C@]1(C(=O)CCl)[C@@H](C)C[C@H]2[C@@H]3CCC4=CC(=O)C=C[C@]4(C)[C@@]3(F)[C@@H](O)C[C@@]21C [CLOBETASOL PROPIONATE] | Not Active | Not Active
O=C1CN=C(c2ccccc2Cl)c2cc([N+](=O)[O-])ccc2N1 [CLONAZEPAM] | Not Active | Not Active
Nc1ccn([C@@H]2O[C@H](CO)[C@@H](O)[C@@H]2O)c(=O)n1 [CYTARABINE] | Not Active | Not Active

Target: Receptor tyrosine-protein kinase erbB-2 (Homo sapiens, UniProt P04626);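 note: inhibition of HER2 kinase enzyme activity, measured with Poly(Glu:Tyr) as the phosphorylation substrate; in other assays of this panel Not Active means under 50% inhibition at 10 µM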
Assay: biochemical
Assay type: cell-based, Insect cells
Conditions: insect cells

Sequence of Receptor tyrosine-protein kinase erbB-2 (P04626 whole entry): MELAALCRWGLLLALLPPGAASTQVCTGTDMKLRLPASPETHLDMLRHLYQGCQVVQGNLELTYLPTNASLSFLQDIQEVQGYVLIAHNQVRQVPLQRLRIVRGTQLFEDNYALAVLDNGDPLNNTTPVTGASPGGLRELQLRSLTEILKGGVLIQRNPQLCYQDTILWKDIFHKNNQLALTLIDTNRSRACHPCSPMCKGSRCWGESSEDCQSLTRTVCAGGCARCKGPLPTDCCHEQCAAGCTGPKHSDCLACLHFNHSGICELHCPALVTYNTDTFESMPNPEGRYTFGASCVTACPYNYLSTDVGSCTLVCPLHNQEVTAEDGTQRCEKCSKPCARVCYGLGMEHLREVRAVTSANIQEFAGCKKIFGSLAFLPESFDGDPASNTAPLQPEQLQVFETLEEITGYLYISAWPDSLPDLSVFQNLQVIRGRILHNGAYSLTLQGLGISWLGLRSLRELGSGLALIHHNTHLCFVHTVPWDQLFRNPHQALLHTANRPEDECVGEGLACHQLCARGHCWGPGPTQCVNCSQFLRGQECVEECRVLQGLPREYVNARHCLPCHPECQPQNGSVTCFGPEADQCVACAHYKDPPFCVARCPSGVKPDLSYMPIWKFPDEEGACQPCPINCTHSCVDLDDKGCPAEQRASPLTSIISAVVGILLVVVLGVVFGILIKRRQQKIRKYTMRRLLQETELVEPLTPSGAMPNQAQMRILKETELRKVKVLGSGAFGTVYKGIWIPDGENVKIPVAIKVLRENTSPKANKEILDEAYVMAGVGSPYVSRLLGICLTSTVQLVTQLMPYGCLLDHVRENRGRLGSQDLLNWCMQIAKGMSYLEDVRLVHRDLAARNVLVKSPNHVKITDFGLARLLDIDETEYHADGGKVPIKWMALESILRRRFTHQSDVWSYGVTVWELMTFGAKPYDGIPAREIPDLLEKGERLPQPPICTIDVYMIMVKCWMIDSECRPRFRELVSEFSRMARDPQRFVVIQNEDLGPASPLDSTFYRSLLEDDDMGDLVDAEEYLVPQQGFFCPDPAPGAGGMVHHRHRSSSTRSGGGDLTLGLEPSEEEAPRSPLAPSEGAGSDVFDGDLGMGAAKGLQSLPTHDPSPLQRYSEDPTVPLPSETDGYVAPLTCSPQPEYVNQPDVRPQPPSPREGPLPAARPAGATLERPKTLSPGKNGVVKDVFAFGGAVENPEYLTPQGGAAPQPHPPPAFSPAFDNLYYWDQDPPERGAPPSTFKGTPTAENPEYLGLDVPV

SMILES | IC50
CC(=O)Oc1ccc(C(c2ccc(OC(C)=O)cc2)c2ccccn2)cc1 [BISACODYL] | Not Active
Cc1cc2c(OCC(CNC(C)(C)C)OC(=O)c3ccccc3)cccc2[nH]1 (stereo unspecified) [BOPINDOLOL] | Not Active
Brc1c(NC2=NCCN2)ccc2nccnc12 [BRIMONIDINE] | Not Active
CN(C)[C@@H]1C(O)=C(C(N)=O)C(=O)[C@@]2(O)C(O)=C3C(=O)c4c(O)ccc(Cl)c4[C@@](C)(O)[C@H]3C[C@@H]12 [CHLORTETRACYCLINE] | Not Active
CN/C(=N\CCSCc1nc[nH]c1C)NC#N [CIMETIDINE] | Not Active
COc1cc(N)c(Cl)cc1C(=O)NC1CCN(CCCOc2ccc(F)cc2)CC1OC (stereo unspecified) [CISAPRIDE] | Not Active
CCC(=O)O[C@]1(C(=O)CCl)[C@@H](C)C[C@H]2[C@@H]3CCC4=CC(=O)C=C[C@]4(C)[C@@]3(F)[C@@H](O)C[C@@]21C [CLOBETASOL PROPIONATE] | Not Active
O=C1CN=C(c2ccccc2Cl)c2cc([N+](=O)[O-])ccc2N1 [CLONAZEPAM] | Not Active
Nc1ccn([C@@H]2O[C@H](CO)[C@@H](O)[C@@H]2O)c(=O)n1 [CYTARABINE] | Not Active

Target: Acetylcholinesterase (Homo sapiens, UniProt P22303)
Assay: DRUGMATRIX: Acetylcholinesterase enzyme inhibition (substrate: acetylthiocholine)
Assay type: cell-based, HEK293
Conditions: hek293; Not Active = under 50% inhibition at 10 µM

Sequence of Acetylcholinesterase (P22303 whole entry): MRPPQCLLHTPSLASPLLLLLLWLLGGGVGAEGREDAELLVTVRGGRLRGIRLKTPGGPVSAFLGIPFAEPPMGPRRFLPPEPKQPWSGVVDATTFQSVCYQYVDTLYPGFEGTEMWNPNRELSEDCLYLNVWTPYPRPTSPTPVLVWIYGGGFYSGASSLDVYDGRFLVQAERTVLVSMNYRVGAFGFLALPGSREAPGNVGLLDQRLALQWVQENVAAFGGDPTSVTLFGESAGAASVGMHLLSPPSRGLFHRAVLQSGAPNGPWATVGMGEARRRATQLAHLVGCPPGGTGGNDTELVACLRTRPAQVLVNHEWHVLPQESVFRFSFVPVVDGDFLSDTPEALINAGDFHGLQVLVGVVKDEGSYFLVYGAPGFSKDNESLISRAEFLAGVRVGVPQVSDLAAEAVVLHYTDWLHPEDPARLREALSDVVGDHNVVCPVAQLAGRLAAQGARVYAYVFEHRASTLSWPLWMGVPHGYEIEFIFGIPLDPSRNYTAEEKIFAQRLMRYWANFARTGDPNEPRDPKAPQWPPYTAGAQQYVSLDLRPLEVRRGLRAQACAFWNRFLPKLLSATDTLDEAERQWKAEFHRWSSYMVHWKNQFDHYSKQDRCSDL

SMILES | IC50
CC(=O)Oc1ccc(C(c2ccc(OC(C)=O)cc2)c2ccccn2)cc1 [BISACODYL] | Not Active
Cc1cc2c(OCC(CNC(C)(C)C)OC(=O)c3ccccc3)cccc2[nH]1 (stereo unspecified) [BOPINDOLOL] | Not Active
Brc1c(NC2=NCCN2)ccc2nccnc12 [BRIMONIDINE] | Not Active
CN(C)[C@@H]1C(O)=C(C(N)=O)C(=O)[C@@]2(O)C(O)=C3C(=O)c4c(O)ccc(Cl)c4[C@@](C)(O)[C@H]3C[C@@H]12 [CHLORTETRACYCLINE] | Not Active
CN/C(=N\CCSCc1nc[nH]c1C)NC#N [CIMETIDINE] | Not Active
COc1cc(N)c(Cl)cc1C(=O)NC1CCN(CCCOc2ccc(F)cc2)CC1OC (stereo unspecified) [CISAPRIDE] | Not Active
CCC(=O)O[C@]1(C(=O)CCl)[C@@H](C)C[C@H]2[C@@H]3CCC4=CC(=O)C=C[C@]4(C)[C@@]3(F)[C@@H](O)C[C@@]21C [CLOBETASOL PROPIONATE] | Not Active
O=C1CN=C(c2ccccc2Cl)c2cc([N+](=O)[O-])ccc2N1 [CLONAZEPAM] | Not Active
Nc1ccn([C@@H]2O[C@H](CO)[C@@H](O)[C@@H]2O)c(=O)n1 [CYTARABINE] | Not Active

Target: Cytochrome P450 2E1 (Homo sapiens, UniProt P05181); note: in other assays of this panel Not Active means under 50% inhibition at 10 µM
Assay: not given
Conditions: bti-tn-5b1-4

Sequence of Cytochrome P450 2E1 (P05181 whole entry): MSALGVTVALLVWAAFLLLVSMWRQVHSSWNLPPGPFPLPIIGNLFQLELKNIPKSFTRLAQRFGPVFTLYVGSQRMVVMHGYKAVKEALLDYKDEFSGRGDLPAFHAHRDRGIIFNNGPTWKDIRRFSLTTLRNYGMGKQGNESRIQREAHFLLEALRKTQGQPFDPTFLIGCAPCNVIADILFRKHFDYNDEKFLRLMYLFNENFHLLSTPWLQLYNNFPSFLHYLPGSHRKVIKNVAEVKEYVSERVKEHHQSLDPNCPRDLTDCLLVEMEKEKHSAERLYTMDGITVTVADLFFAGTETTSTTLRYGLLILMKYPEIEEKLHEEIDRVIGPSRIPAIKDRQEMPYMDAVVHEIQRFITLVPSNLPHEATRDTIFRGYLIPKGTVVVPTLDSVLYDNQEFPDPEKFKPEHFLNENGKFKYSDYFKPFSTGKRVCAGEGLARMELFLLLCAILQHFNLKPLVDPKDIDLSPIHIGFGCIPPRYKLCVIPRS

SMILES | IC50 | Ki
CC(=O)Oc1ccc(C(c2ccc(OC(C)=O)cc2)c2ccccn2)cc1 [BISACODYL] | Not Active | Not Active
Cc1cc2c(OCC(CNC(C)(C)C)OC(=O)c3ccccc3)cccc2[nH]1 (stereo unspecified) [BOPINDOLOL] | Not Active | Not Active
Brc1c(NC2=NCCN2)ccc2nccnc12 [BRIMONIDINE] | Not Active | Not Active
CN(C)[C@@H]1C(O)=C(C(N)=O)C(=O)[C@@]2(O)C(O)=C3C(=O)c4c(O)ccc(Cl)c4[C@@](C)(O)[C@H]3C[C@@H]12 [CHLORTETRACYCLINE] | Not Active | Not Active
CN/C(=N\CCSCc1nc[nH]c1C)NC#N [CIMETIDINE] | Not Active | Not Active
COc1cc(N)c(Cl)cc1C(=O)NC1CCN(CCCOc2ccc(F)cc2)CC1OC (stereo unspecified) [CISAPRIDE] | Not Active | Not Active
CCC(=O)O[C@]1(C(=O)CCl)[C@@H](C)C[C@H]2[C@@H]3CCC4=CC(=O)C=C[C@]4(C)[C@@]3(F)[C@@H](O)C[C@@]21C [CLOBETASOL PROPIONATE] | Not Active | Not Active
O=C1CN=C(c2ccccc2Cl)c2cc([N+](=O)[O-])ccc2N1 [CLONAZEPAM] | Not Active | Not Active
Nc1ccn([C@@H]2O[C@H](CO)[C@@H](O)[C@@H]2O)c(=O)n1 [CYTARABINE] | Not Active | Not Active

Target: Epidermal growth factor receptor (Homo sapiens, UniProt P00533)
Assay: DRUGMATRIX: Protein Tyrosine Kinase, EGF Receptor enzyme inhibition (substrate: Poly(Glu:Tyr))
Assay type: cell-based, Insect cells
Conditions: insect cells; Not Active = under 50% inhibition at 10 µM

Sequence of Epidermal growth factor receptor (P00533 whole entry): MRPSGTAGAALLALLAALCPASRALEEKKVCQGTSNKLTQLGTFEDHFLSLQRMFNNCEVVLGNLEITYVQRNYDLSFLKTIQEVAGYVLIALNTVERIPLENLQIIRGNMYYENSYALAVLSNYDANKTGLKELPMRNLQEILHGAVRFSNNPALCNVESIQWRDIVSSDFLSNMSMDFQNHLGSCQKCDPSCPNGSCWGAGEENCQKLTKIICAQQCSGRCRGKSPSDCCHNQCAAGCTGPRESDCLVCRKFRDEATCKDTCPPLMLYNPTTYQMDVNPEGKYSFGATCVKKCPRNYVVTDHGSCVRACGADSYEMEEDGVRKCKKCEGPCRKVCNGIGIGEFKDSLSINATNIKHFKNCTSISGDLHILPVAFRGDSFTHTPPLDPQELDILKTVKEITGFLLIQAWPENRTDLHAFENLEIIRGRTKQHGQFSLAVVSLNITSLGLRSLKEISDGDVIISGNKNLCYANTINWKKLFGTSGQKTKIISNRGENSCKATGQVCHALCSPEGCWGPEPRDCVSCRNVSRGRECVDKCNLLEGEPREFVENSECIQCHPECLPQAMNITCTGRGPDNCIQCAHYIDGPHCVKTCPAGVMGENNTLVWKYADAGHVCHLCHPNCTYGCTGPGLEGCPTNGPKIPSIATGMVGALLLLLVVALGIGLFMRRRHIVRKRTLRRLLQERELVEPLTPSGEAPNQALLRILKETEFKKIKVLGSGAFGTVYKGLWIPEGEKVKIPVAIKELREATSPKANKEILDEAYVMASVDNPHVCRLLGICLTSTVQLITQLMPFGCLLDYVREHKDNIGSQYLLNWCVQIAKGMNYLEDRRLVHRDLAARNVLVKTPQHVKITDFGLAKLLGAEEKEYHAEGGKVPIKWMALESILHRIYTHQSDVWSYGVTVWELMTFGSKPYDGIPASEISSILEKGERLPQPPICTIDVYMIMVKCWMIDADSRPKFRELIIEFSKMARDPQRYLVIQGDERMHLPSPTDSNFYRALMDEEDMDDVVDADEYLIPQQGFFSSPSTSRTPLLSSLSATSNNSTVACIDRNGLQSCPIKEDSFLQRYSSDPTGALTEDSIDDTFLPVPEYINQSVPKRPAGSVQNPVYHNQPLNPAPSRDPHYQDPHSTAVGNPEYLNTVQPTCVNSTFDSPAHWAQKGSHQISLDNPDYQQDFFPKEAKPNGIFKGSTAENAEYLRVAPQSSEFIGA

SMILES | IC50
CC(=O)Oc1ccc(C(c2ccc(OC(C)=O)cc2)c2ccccn2)cc1 [BISACODYL] | Not Active
Cc1cc2c(OCC(CNC(C)(C)C)OC(=O)c3ccccc3)cccc2[nH]1 (stereo unspecified) [BOPINDOLOL] | Not Active
Brc1c(NC2=NCCN2)ccc2nccnc12 [BRIMONIDINE] | Not Active
CN(C)[C@@H]1C(O)=C(C(N)=O)C(=O)[C@@]2(O)C(O)=C3C(=O)c4c(O)ccc(Cl)c4[C@@](C)(O)[C@H]3C[C@@H]12 [CHLORTETRACYCLINE] | Not Active
CN/C(=N\CCSCc1nc[nH]c1C)NC#N [CIMETIDINE] | Not Active
COc1cc(N)c(Cl)cc1C(=O)NC1CCN(CCCOc2ccc(F)cc2)CC1OC (stereo unspecified) [CISAPRIDE] | Not Active
CCC(=O)O[C@]1(C(=O)CCl)[C@@H](C)C[C@H]2[C@@H]3CCC4=CC(=O)C=C[C@]4(C)[C@@]3(F)[C@@H](O)C[C@@]21C [CLOBETASOL PROPIONATE] | Not Active
O=C1CN=C(c2ccccc2Cl)c2cc([N+](=O)[O-])ccc2N1 [CLONAZEPAM] | Not Active
Nc1ccn([C@@H]2O[C@H](CO)[C@@H](O)[C@@H]2O)c(=O)n1 [CYTARABINE] | Not Active

Target: T1, Substance-K receptor (Homo sapiens, UniProt P21452); note: in other assays of this panel Not Active means under 50% inhibition at 10 µM
T1 sequence (P21452 whole entry): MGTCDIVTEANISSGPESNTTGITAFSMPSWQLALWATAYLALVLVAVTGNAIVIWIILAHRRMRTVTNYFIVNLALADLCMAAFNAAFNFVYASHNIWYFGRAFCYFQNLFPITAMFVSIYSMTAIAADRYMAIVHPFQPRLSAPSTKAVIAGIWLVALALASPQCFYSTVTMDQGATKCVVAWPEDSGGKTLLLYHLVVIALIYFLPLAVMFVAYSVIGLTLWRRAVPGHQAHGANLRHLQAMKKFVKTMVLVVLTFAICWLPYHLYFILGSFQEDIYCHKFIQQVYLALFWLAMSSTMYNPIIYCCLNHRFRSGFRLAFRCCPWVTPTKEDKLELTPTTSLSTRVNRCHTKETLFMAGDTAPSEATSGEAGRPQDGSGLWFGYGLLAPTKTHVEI
Assay: not given
Assay type: cell membranes, CHO, Membrane
Conditions: cho

SMILES | IC50
CC(=O)Oc1ccc(C(c2ccc(OC(C)=O)cc2)c2ccccn2)cc1 [BISACODYL] | Not Active
Cc1cc2c(OCC(CNC(C)(C)C)OC(=O)c3ccccc3)cccc2[nH]1 (stereo unspecified) [BOPINDOLOL] | Not Active
Brc1c(NC2=NCCN2)ccc2nccnc12 [BRIMONIDINE] | Not Active
CN(C)[C@@H]1C(O)=C(C(N)=O)C(=O)[C@@]2(O)C(O)=C3C(=O)c4c(O)ccc(Cl)c4[C@@](C)(O)[C@H]3C[C@@H]12 [CHLORTETRACYCLINE] | Not Active
CN/C(=N\CCSCc1nc[nH]c1C)NC#N [CIMETIDINE] | Not Active
COc1cc(N)c(Cl)cc1C(=O)NC1CCN(CCCOc2ccc(F)cc2)CC1OC (stereo unspecified) [CISAPRIDE] | Not Active
CCC(=O)O[C@]1(C(=O)CCl)[C@@H](C)C[C@H]2[C@@H]3CCC4=CC(=O)C=C[C@]4(C)[C@@]3(F)[C@@H](O)C[C@@]21C [CLOBETASOL PROPIONATE] | Not Active
O=C1CN=C(c2ccccc2Cl)c2cc([N+](=O)[O-])ccc2N1 [CLONAZEPAM] | Not Active
Nc1ccn([C@@H]2O[C@H](CO)[C@@H](O)[C@@H]2O)c(=O)n1 [CYTARABINE] | Not Active

Target: T2, Neuropeptide Y receptor type 2 (Homo sapiens, UniProt P49146); note: in other assays of this panel Not Active means under 50% inhibition at 10 µM
T2 sequence (P49146 whole entry): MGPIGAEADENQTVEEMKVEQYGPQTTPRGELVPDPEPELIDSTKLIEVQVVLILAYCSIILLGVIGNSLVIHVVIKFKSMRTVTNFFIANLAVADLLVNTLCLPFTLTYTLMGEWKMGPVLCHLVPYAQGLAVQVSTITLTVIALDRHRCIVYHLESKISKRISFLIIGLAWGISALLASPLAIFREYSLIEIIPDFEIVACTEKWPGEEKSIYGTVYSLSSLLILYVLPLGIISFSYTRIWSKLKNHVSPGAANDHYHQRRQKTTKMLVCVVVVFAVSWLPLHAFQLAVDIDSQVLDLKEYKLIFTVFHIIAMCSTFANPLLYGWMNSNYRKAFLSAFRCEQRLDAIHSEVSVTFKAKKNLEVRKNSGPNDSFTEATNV
Assay: not given
Assay type: cell membranes, KAN-TS, Membrane
Conditions: kan-ts

SMILES | IC50
CC(=O)Oc1ccc(C(c2ccc(OC(C)=O)cc2)c2ccccn2)cc1 [BISACODYL] | Not Active
Cc1cc2c(OCC(CNC(C)(C)C)OC(=O)c3ccccc3)cccc2[nH]1 (stereo unspecified) [BOPINDOLOL] | Not Active
Brc1c(NC2=NCCN2)ccc2nccnc12 [BRIMONIDINE] | Not Active
CN(C)[C@@H]1C(O)=C(C(N)=O)C(=O)[C@@]2(O)C(O)=C3C(=O)c4c(O)ccc(Cl)c4[C@@](C)(O)[C@H]3C[C@@H]12 [CHLORTETRACYCLINE] | Not Active
CN/C(=N\CCSCc1nc[nH]c1C)NC#N [CIMETIDINE] | Not Active
COc1cc(N)c(Cl)cc1C(=O)NC1CCN(CCCOc2ccc(F)cc2)CC1OC (stereo unspecified) [CISAPRIDE] | Not Active
CCC(=O)O[C@]1(C(=O)CCl)[C@@H](C)C[C@H]2[C@@H]3CCC4=CC(=O)C=C[C@]4(C)[C@@]3(F)[C@@H](O)C[C@@]21C [CLOBETASOL PROPIONATE] | Not Active
O=C1CN=C(c2ccccc2Cl)c2cc([N+](=O)[O-])ccc2N1 [CLONAZEPAM] | Not Active
Nc1ccn([C@@H]2O[C@H](CO)[C@@H](O)[C@@H]2O)c(=O)n1 [CYTARABINE] | Not Active

Source: ChEMBL document CHEMBL1909046, “DrugMatrix in vitro pharmacology data”
